Measurements taken from ChEMBL document CHEMBL1201862, “PubChem BioAssay data set” (2004).
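1) Cells in 96-well plates. 2) Compound, 48 h, 5 concentrations. 3) Linear interpolation between surrounding doses. 4) Unreached endpoint = highest concentration. The concentration for 50% growth inhibition is given as GI50.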 Active and inactive are the calls of the source. Rule as the data show it: active = GI50 up to about 1.1 µM and inactive = higher.

Columns and labels:
Experiment in all cases: NCI anticancer screen, dose series, 48 h
SK-MEL-2 = tested on: SK-MEL-2
SK-MEL-5 = tested on: SK-MEL-5
HCT-116 = tested on: HCT-116
UO-31 = tested on: UO-31
RXF 393 = tested on: RXF 393
MOLT-4 = tested on: MOLT-4
K562 = tested on: K562
Malme-3M = tested on: Malme-3M
CCRF-CEM = tested on: CCRF-CEM
SK-MEL-28 = tested on: SK-MEL-28
A549 = tested on: A549
U-251 = tested on: U-251
HOP-62 = tested on: HOP-62
COLO 205 = tested on: COLO 205
SF-539 = tested on: SF-539
LOX IMVI = tested on: LOX IMVI
HCC 2998 = tested on: HCC 2998

Measured: GI50

COc1cc(Nc2nc3cc(C(F)(F)F)ccc3nc2-c2ccccc2)cc(OC)c1OC
inactive: SK-MEL-2 > 100 µM | SK-MEL-5 34.4 µM | HCT-116 > 10 µM | UO-31 > 100 µM | RXF 393 18.1 µM | MOLT-4 > 100 µM | K562 > 100 µM | Malme-3M > 100 µM | CCRF-CEM > 100 µM | SK-MEL-28 49.7 µM | A549 92.3 µM | U-251 57.4 µM | HOP-62 18.9 µM | COLO 205 > 100 µM | SF-539 54.8 µM | LOX IMVI > 100 µM | HCC 2998 > 100 µM

CSC1CC2C(CC1(C)SC)C2(C)C (configuration not stated)
inactive: SK-MEL-2 23.2 µM | SK-MEL-5 24.4 µM | UO-31 19.9 µM | RXF 393 56.5 µM | MOLT-4 22.6 µM | K562 24.3 µM | Malme-3M 41.8 µM | CCRF-CEM 28.2 µM | SK-MEL-28 > 100 µM | A549 32.7 µM | U-251 32.1 µM | HOP-62 > 100 µM | COLO 205 37.3 µM | SF-539 > 100 µM | LOX IMVI 30.7 µM | HCC 2998 87.1 µM

CCN1C(=O)/C(=C\c2coc3ccccc3c2=O)SC1=S
inactive: SK-MEL-2 > 100 µM | SK-MEL-5 > 100 µM | HCT-116 64 µM | UO-31 > 100 µM | RXF 393 36.5 µM | MOLT-4 > 100 µM | K562 > 100 µM | Malme-3M > 100 µM | CCRF-CEM 65.6 µM | SK-MEL-28 > 100 µM | A549 > 100 µM | U-251 28.3 µM | HOP-62 61.9 µM | COLO 205 > 100 µM | SF-539 32.8 µM | LOX IMVI 42.1 µM | HCC 2998 > 100 µM

Sc1nnc(-c2ccccc2)n1/N=C\c1ccc(-c2ccc(Cl)cc2)o1
inactive: HCT-116 > 100 µM | UO-31 > 100 µM | MOLT-4 > 100 µM | K562 > 100 µM | SK-MEL-28 > 100 µM | A549 > 100 µM | U-251 > 100 µM | HOP-62 > 100 µM | COLO 205 > 100 µM | SF-539 > 100 µM | LOX IMVI > 100 µM

NC(=O)/N=C1\NC(Cc2ccccc2)C(=O)N1Cc1ccccc1 (configuration not stated)
inactive: SK-MEL-5 > 100 µM | HCT-116 > 100 µM | UO-31 > 100 µM | RXF 393 > 100 µM | MOLT-4 > 100 µM | K562 > 100 µM | CCRF-CEM > 100 µM | SK-MEL-28 > 100 µM | A549 > 100 µM | U-251 > 100 µM | HOP-62 > 100 µM | COLO 205 > 100 µM | SF-539 > 100 µM | LOX IMVI > 100 µM | HCC 2998 > 100 µM

CC(=O)OCC12CC(CC1OC(C)=O)c1ccccc12 (configuration not stated)
inactive: SK-MEL-5 > 100 µM | HCT-116 > 100 µM | UO-31 > 100 µM | MOLT-4 > 100 µM | K562 > 100 µM | Malme-3M > 100 µM | CCRF-CEM > 100 µM | SK-MEL-28 > 100 µM | A549 > 100 µM | U-251 > 100 µM | HOP-62 > 100 µM | COLO 205 > 100 µM | LOX IMVI > 100 µM | HCC 2998 > 100 µM

COc1ccc(/C(=C/n2ccnc2)C(O)c2ccc(OC)c(OC)c2)cc1OC (configuration not stated)
inactive: SK-MEL-2 > 100 µM | UO-31 > 100 µM | RXF 393 33.3 µM | MOLT-4 > 100 µM | K562 37.2 µM | CCRF-CEM 26.7 µM | SK-MEL-28 > 100 µM | U-251 > 100 µM | HOP-62 > 100 µM | COLO 205 > 100 µM | SF-539 78 µM | LOX IMVI > 100 µM

CN(C)CCC(CCN(C)C)=NO
inactive: SK-MEL-2 > 100 µM | SK-MEL-5 > 100 µM | HCT-116 > 100 µM | UO-31 > 100 µM | RXF 393 > 100 µM | MOLT-4 > 100 µM | K562 > 100 µM | Malme-3M > 100 µM | CCRF-CEM > 100 µM | SK-MEL-28 > 100 µM | A549 > 100 µM | U-251 > 100 µM | HOP-62 > 100 µM | COLO 205 > 100 µM | SF-539 > 100 µM | HCC 2998 > 100 µM

CN(C)CC1CCCC/C1=N/OC(=O)c1ccc(Cl)c(Cl)c1 (configuration not stated)
inactive: SK-MEL-2 > 100 µM | SK-MEL-5 > 100 µM | HCT-116 > 100 µM | UO-31 70.6 µM | RXF 393 > 100 µM | K562 > 100 µM | Malme-3M > 100 µM | CCRF-CEM > 100 µM | SK-MEL-28 > 100 µM | A549 > 100 µM | U-251 > 100 µM | HOP-62 > 100 µM | COLO 205 > 100 µM | SF-539 > 100 µM | LOX IMVI > 100 µM | HCC 2998 > 100 µM

COc1cc(-c2cc(=O)c3cc(C)c(C)c(C(=O)O)c3o2)cc(OC)c1OC
inactive: SK-MEL-2 > 100 µM | SK-MEL-5 > 100 µM | HCT-116 > 100 µM | UO-31 > 100 µM | MOLT-4 > 100 µM | K562 > 100 µM | Malme-3M > 100 µM | CCRF-CEM > 100 µM | SK-MEL-28 > 100 µM | A549 > 100 µM | U-251 > 100 µM | HOP-62 > 100 µM | COLO 205 > 100 µM | SF-539 > 100 µM | LOX IMVI > 100 µM | HCC 2998 > 100 µM

CC1=NC(C(C)C)C(=O)O1 (configuration not stated)
inactive: SK-MEL-5 > 100 µM | HCT-116 18.5 µM | UO-31 > 100 µM | MOLT-4 > 100 µM | K562 61.1 µM | Malme-3M > 100 µM | CCRF-CEM > 100 µM | SK-MEL-28 > 100 µM | U-251 > 100 µM | HOP-62 > 100 µM | COLO 205 72.3 µM | SF-539 > 100 µM | HCC 2998 > 100 µM

S=C1OC2CCCC[C@H]2O1 (some centres not stated)
inactive: SK-MEL-2 > 100 µM | SK-MEL-5 > 100 µM | HCT-116 > 100 µM | UO-31 > 100 µM | RXF 393 > 100 µM | MOLT-4 > 100 µM | K562 > 100 µM | CCRF-CEM > 100 µM | SK-MEL-28 > 100 µM | A549 > 100 µM | U-251 > 100 µM | HOP-62 > 100 µM | COLO 205 > 100 µM | SF-539 > 100 µM | LOX IMVI > 100 µM | HCC 2998 > 100 µM

Cc1c2ncccc2c(C)c2c1[nH]c1ccccc12
inactive: SK-MEL-2 22.9 µM | HCT-116 5.27 µM | UO-31 > 10 µM | RXF 393 13 µM | MOLT-4 2.02 µM | K562 14.5 µM | Malme-3M 15.1 µM | CCRF-CEM 10.2 µM | SK-MEL-28 15.6 µM | A549 6.78 µM | U-251 12.2 µM | HOP-62 11.8 µM | COLO 205 13.1 µM | SF-539 13.2 µM | LOX IMVI 5.66 µM | HCC 2998 12.3 µM

O=C(O)C(CS)Nc1c2ccccc2[n+]([O-])c2ccccc12 (configuration not stated)
inactive: SK-MEL-2 > 100 µM | SK-MEL-5 76 µM | HCT-116 92 µM | UO-31 49.8 µM | MOLT-4 > 100 µM | K562 78.9 µM | Malme-3M > 100 µM | CCRF-CEM > 100 µM | SK-MEL-28 > 100 µM | A549 > 100 µM | U-251 > 100 µM | HOP-62 > 100 µM | COLO 205 > 100 µM | LOX IMVI > 100 µM | HCC 2998 > 100 µM

CCOC(=O)C(Cc1cn(S(=O)(=O)c2ccccc2)c2ccccc12)(NC(C)=O)C(=O)OCC
inactive: SK-MEL-2 30.6 µM | SK-MEL-5 15.8 µM | HCT-116 24.7 µM | UO-31 17.1 µM | MOLT-4 19 µM | K562 29 µM | Malme-3M 37.9 µM | CCRF-CEM 25.1 µM | SK-MEL-28 42.6 µM | A549 36.2 µM | U-251 40.1 µM | HOP-62 27.2 µM | COLO 205 25 µM | SF-539 30.3 µM | HCC 2998 34 µM

C=C(C)CC(C(=O)O)c1ccc(C)cc1 (configuration not stated)
inactive: SK-MEL-2 > 100 µM | SK-MEL-5 > 100 µM | HCT-116 > 100 µM | RXF 393 > 100 µM | K562 > 100 µM | Malme-3M > 100 µM | SK-MEL-28 > 100 µM | A549 > 100 µM | U-251 > 100 µM | HOP-62 > 100 µM | COLO 205 > 100 µM | SF-539 > 100 µM | LOX IMVI > 100 µM

CCCC(=O)c1c(NOC2OC(COC(C)=O)C(OC(C)=O)C(OC(C)=O)C2OC(C)=O)nc(OC)n(C)c1=O (configuration not stated)
inactive: SK-MEL-2 > 100 µM | SK-MEL-5 > 100 µM | HCT-116 > 100 µM | UO-31 6.1 µM | RXF 393 > 100 µM | MOLT-4 > 100 µM | K562 > 100 µM | CCRF-CEM > 100 µM | SK-MEL-28 > 100 µM | A549 > 100 µM | U-251 > 100 µM | HOP-62 > 100 µM | COLO 205 > 100 µM | SF-539 > 100 µM | LOX IMVI > 100 µM | HCC 2998 > 100 µM

CN(C)CC(=O)N1CCc2c([nH]c3ccccc23)C1c1cccnc1 (configuration not stated)
inactive: SK-MEL-5 > 100 µM | HCT-116 > 100 µM | UO-31 22.5 µM | MOLT-4 > 100 µM | K562 > 100 µM | CCRF-CEM > 100 µM | SK-MEL-28 > 100 µM | A549 > 100 µM | U-251 > 100 µM | HOP-62 > 100 µM | SF-539 > 100 µM | LOX IMVI > 100 µM | HCC 2998 > 100 µM
